In patent publication US8247460B2, “Method of treatment for muscular dystrophy” (priority 2006, dated 2012):
Read-outs that look alike come from different tables or passages of the source.

Key:
[1] = system: alpha-SG-null C57BL/6 mouse; assay type: in vivo
Description: FIG. 1: alpha-sarcoglycan (SG)-null C57BL/6 mice were treated for 30 days with the indicated drugs, or combinations of drugs incorporated into the diet as described in the Methods. Serum creatin kinase (CK) concentrations were measured from mouse blood samples obtained by tail vein withdrawal using the indirect colorimetric assay (Roche Diagnostics), following standard procedures.
(§1) The alpha-SG-null C57BL/6 mouse, one of the most severe models of muscular dystrophy was used. In some experiments wild type (wt) C57BL/6 mouse were used as internal further control.
(§2) In the in vivo experiments the drugs were administered daily in the diet to three months old animals for 30 days. The dose of aspirin was 80 mg/kg, the dose of ISMN was 35 mg/kg and that of ISDN was 10 mg/kg, while the dose of ibuprofen was 15 mg/kg. Prednisolone was used as reference drug at the dose of 2 mg/kg. When combinations of drugs were used, the drugs were both incorporated in the same diet. Control animals received the same diet without any drug incorporation.
Quantitative determination of creatine kinase activity in serum of control and drug treated-animals was measured using creatine kinase reagent (Randox, CK110), according to the manufacturer's instructions. Blood was collected from tail vein and serum obtained after centrifugation at 13000 rpm for 10 minutes was stored at −80° C. before measurements.

[2] = system: alpha-SG-null C57BL/6 mouse; experiment: Free wheel running (voluntary running wheel activity); assay type: in vivo; settings: alpha-SG-null mice, drugs daily in the diet, 30 days of treatment, n = 4
Description: FIG. 2: alpha-SG-null C57BL/6 mice were treated for 30 days with the indicated drugs, or combinations of drugs incorporated into the diet as described in the Methods. Locomotor performance was measured through the Running Wheel Activity, to this end mice were housed individually in cages equipped with a Trixie running wheel. Each wheel revolution was registered through a magnetic switch, which was connected to a counter. The number of revolutions was recorded daily for 6 days. […] The results of 9 experiments ±S.E.M of Running Wheel Activity measured in wild type (wt) C57BL/6 mice are also reported.
as §1, §2
Voluntary wheel running was used as the exercise paradigm to avoid any physiological changes that may occur due to the stress of forced treadmill running. Mice were housed individually in cages equipped with a Trixie running wheel. Each wheel revolution was registered through a magnetic switch, which was connected to a counter. The number of revolutions was recorded daily for 6 days.

[3] = system: alpha-SG-null C57BL/6 mouse; experiment: Histology: number of inflammatory infiltrates in muscle sections; assay type: in vivo; settings: alpha-SG-null mice, drugs daily in the diet, 30 days of treatment, n = 4
Description: FIG. 3: alpha-SG-null C57BL/6 mice were treated for 30 days with the indicated drugs, or combinations of drugs incorporated into the diet as described in the Methods. Tibialis anterior muscles were dissected and frozen in liquid nitrogen-cooled isopentane. The number of inflammatory infiltrates was measured on Azan-Mallory-stained serial muscle sections.
as §1, §2
(§3) Diaphragm and tibialis anterior of untreated and drug-treated mice were isolated and included in Killik® frozen section medium, quickly frozen and cut into 8-μm thick sections with the muscle fibres oriented transversely using a cryostat. Sections were stained with either Hematoxylin&Eosin or Azan Mallory, to evaluate the number of inflammatory infiltrates and necrotic fibres ([…] sections per tissue), respectively.

[4] = system: alpha-SG-null C57BL/6 mouse; experiment: In vivo experiments: histological, functional and biochemical alterations overall; settings: alpha-SG-null mice, 30 days in the diet, vs control
Description: as §1, §2
The effects of the different drugs and their combination on the number of inflammatory infiltrates, the number of necrotic fibers per section, creatine kinase activity and free wheel distance ran are shown in Table I.

[5] = system: alpha-SG-null C57BL/6 mouse; experiment: Histology: number of necrotic fibres in muscle sections; assay type: in vivo; settings: alpha-SG-null mice, drugs daily in the diet, 30 days of treatment, n = 4
Description: FIG. 4: alpha-SG-null C57BL/6 mice were treated for 30 days with the indicated drugs, or combinations of drugs incorporated into the diet as described in the Methods. Diaphragm muscles were dissected, frozen in liquid nitrogen-cooled isopentane and stained with hematoxilin & eosin according to standard procedures.
as §1, §2, §3

[6] = system: Satellite cells from alpha-SG-null C57BL/6 mice; experiment: Fusion index of differentiating satellite cells; assay type: cell-based, mouse; settings: for Fusion index: n = 4; for Fusion index compared to control cells, in words: satellite cells, 48 and 72 h
Description: FIG. 6: Satellite cells from alpha-SG-null C57BL/6 mice were isolated from 3-5 days old mice and induced to differentiate in the presence of the indicated drugs as described in the methods. Fusion index was determined at 48 and 72 h as the number of nuclei in sarcomeric myosin-expressing cells with more than 2 nuclei vs the total number of nuclei.
In the in vitro experiments, the drugs were applied to satellite cells at the concentration of 100 μM for ISMN, 50 μM for ISDN, 10 μM for ibuprofen, 50 μM for aspirin and 30 μM for prednisolone. When combinations of drugs were used, the drugs were administered at the same time.
Satellite cells were isolated from 3-5 days old mice as described previously with some modifications. In particular, after 3 days from isolation, proliferating myoblasts were harvested, counted, and plated on tissue culture plastic dishes coated with 1 mg/ml type I collagen (SIGMA, C9791). […] Preparations showing less than 90% myogenic cells were discarded. […] Growth medium contained IMDM medium supplemented with 20% Fetal Bovine Serum, 3% Chick Embryo Extract, 100 U/ml Penicillin, 100 μg/ml Streptomycin, 50 μg/ml Gentamycin. Differentiation medium contained IMDM medium supplemented with 2% Horse Serum, 100 U/ml Penicillin, 100 μg/ml Streptomycin. Fusion index was determined as the number of nuclei in sarcomeric myosin-expressing cells with more than 2 nuclei vs the total number of nuclei.
Satellite cells isolated from newborn alpha-SG-null C57BL/6 mice and plated at low density (6×10^3 cells/cm^2) were maintained for 48 h in growth medium, and then switched to the differentiating medium in the presence or absence of ISMN, ISDN, aspirin, ibuprofen, ISMN plus aspirin or ISDN plus ibuprofen.

[7] = serum, alpha-SG-null mice, drugs daily in the diet, 30 days of treatment, n = 4
[8] = 48 hours of treatment in differentiating medium
[9] = 72 hours of treatment in differentiating medium

`CC(=O)Oc1ccccc1C(=O)O` [Aspirin] was tested, and the CK level [1, 7] was 841 ± 33 U/l, the Free wheel test [2] was 0.15 ± 0.02 km/24 h and the “N° of inflammatory infiltrates/sections” value [3] was 122.2 ± 17.1°. The “Effect on the parameters measured (histological, functional and biochemical alterations), in words” value [4] was “did not have significant effects”, the “N° of necrotic fibres/section” value [5] was 249.0 ± 32.1 and the Fusion index [6, 8] was 20 ± 1.9%. For the same compound, the Fusion index [6, 9] was 43 ± 1.7%.
In the case of `O=[N+]([O-])O[C@H]1CO[C@H]2[C@@H]1OC[C@H]2O[N+](=O)[O-]` [ISDN, isosorbide dinitrate], the “Effect on the parameters measured (histological, functional and biochemical alterations), in words” value [4] is reported as “did not have significant effects” and the “Fusion index compared to control cells, in words” value [6] is reported as “effective on their own”.
With `O=[N+]([O-])O[C@@H]1CO[C@H]2[C@@H]1OC[C@@H]2O` [ISMN, isosorbide-mononitrate] the CK level ([1]; mouse, in vivo) was 787 ± 33 U/l, the Free wheel test [2] was 0.18 ± 0.03 km/24 h and the “N° of inflammatory infiltrates/sections” value [3] was 190.2 ± 33.2. For the same compound, the “Effect on the parameters measured (histological, functional and biochemical alterations), in words” value [4] was “did not have significant effects”, the “N° of necrotic fibres/section” value [5] was 238.0 ± 27.2 and the Fusion index [6, 8] was 41 ± 2.2 %. For the same compound, the Fusion index [6, 9] was 76 ± 3.3 % and the “Fusion index compared to control cells, in words” value [6] was “effective on their own”.
With `CC(C)Cc1ccc(C(C)C(=O)O)cc1` (stereo not drawn) [Ibuprofen] the CK level [1, 7] was 851 ± 41 U/l, the Free wheel test [2] was 0.12 ± 0.01 km/24 h and the “N° of inflammatory infiltrates/sections” value [3] was 116.1 ± 11.1°. The “Effect on the parameters measured (histological, functional and biochemical alterations), in words” value [4] was “did not have significant effects”, the “N° of necrotic fibres/section” value [5] was 269.0 ± 34.3 and the Fusion index [6, 8] was 21 ± 1.2%. The Fusion index [6, 9] was 42 ± 2.3%.
`C[C@]12C=CC(=O)C=C1CC[C@@H]1[C@@H]2[C@@H](O)C[C@@]2(C)[C@H]1CC[C@]2(O)C(=O)CO` [Prednisolone] was tested, and the CK level [1, 7] was 757.6 ± 37.5 U/l, the Free wheel test [2] was 0.38 ± 0.1 km/24 h and the “N° of inflammatory infiltrates/sections” value [3] was 103.4 ± 12.0. For the same compound, the “N° of necrotic fibres/section” value [5] was 217.3 ± 37.3, the Fusion index [6, 8] was 18 ± 0.9% and the Fusion index [6, 9] was 41 ± 2.0%.
